{"source": "paper PMC10208956", "about": "“Microbial peptides activate tumour-infiltrating lymphocytes in glioblastoma” (Nature, 2023)", "test_system": "TCC75", "assay": "Cytokine/chemokine secretion of TCC75", "type": "cell-based, human", "design": "IL-1α / IL-1β / IL-2 / IL-3 / IL-4 / IL-5 / IL-6 / IL-7 / IL-10 / IL-13 / IL-15 / IL-17A / IL-33 / TNF-α: unit not given here", "settings": "TCC75, sheet e"}
{"substance": "Ac-QPVEFNHAIHYVN-NH2 [SIN3A*]", "values": [{"measurement": "CCL2/MCP-1", "value": 15.01}, {"measurement": "CCL3/MIP-1α", "value": 1946.52}, {"measurement": "CCL4/MIP-1β", "value": 6778.88}, {"measurement": "CCL11/Eotaxin", "value": 4.69}, {"measurement": "CCL19/MIP-3β", "value": 3.33}, {"measurement": "CCL20/MIP-3α", "value": 6.39}, {"measurement": "CD40 Ligand", "value": 608.52}, {"measurement": "CXCL1/GROα", "value": 9.62}, {"measurement": "CXCL2/GROβ", "value": 35.12}, {"measurement": "CXCL8/IL-8", "value": 0}, {"measurement": "CXCL10/IP-10", "value": 40.51}, {"measurement": "Flt-3 Ligand", "value": 43.9}, {"measurement": "Fractalkine", "value": 194.12}, {"measurement": "GM-CSF", "value": 3130.41}, {"measurement": "Granzyme B", "value": 1085.42}, {"measurement": "IFN-α", "value": 4.79}, {"measurement": "IFN-γ", "value": 479.21}, {"measurement": "IL-1rα", "value": 0}, {"measurement": "IL-1α", "value": 6.12}, {"measurement": "IL-1β", "value": 7.45}, {"measurement": "IL-2", "value": 555.39}, {"measurement": "IL-3", "value": 138.37}, {"measurement": "IL-4", "value": 73.09}, {"measurement": "IL-5", "value": 13.91}, {"measurement": "IL-6", "value": 139.59}, {"measurement": "IL-7", "value": 1.11}, {"measurement": "IL-10", "value": 887.25}, {"measurement": "IL-12p70", "value": 22.92}, {"measurement": "IL-13", "value": 233.15}, {"measurement": "IL-15", "value": 1.05}, {"measurement": "IL-17A", "value": 0.99}, {"measurement": "IL-17E/IL-25", "value": 3.22}, {"measurement": "IL-33", "value": 3.72}, {"measurement": "RANTES", "value": 1598.25}, {"measurement": "TNF-α", "value": 5169.38}]}
